Values quoted from earlier work in patent US8911966B2, “Efficient astaxanthin production strains derived from Haematococcus pluvialis” (Cognis IP Management GmbH, priority 2007, dated 2014).

Conditions: versus α-tocopherol

CC1=C(/C=C/C(C)=C/C=C/C(C)=C/C=C/C=C(C)/C=C/C=C(C)/C=C/C2=C(C)C(=O)C(O)CC2(C)C)C(C)(C)CC(O)C1=O (stereo not drawn) [astaxanthin, 3,3′-dihydroxy-β,β-carotene-4,4′-dione]
antioxidant activities relative to α-tocopherol (vitamin E): over 500 times
